Assay results taken from US5128465A, “Process for the preparation of cephem derivatives and intermediates therefor” (Eisai Co., Ltd., priority 1988, dated 1992).
In brackets after ≈: the same amount, converted by molar mass.

What was measured:
Assay in all cases: Antibacterial activities, MIC
Assay type in all cases: cell-based
[1] = tested on: Pseudomonas aeruginosa EP-01; settings: EP01
[2] = tested on: Staphylococcus aureus 209-P
Escherichia coli NIHJ = tested on: Escherichia coli NIHJ
Morganella morgani EP-14 = settings: EP14
[3] = tested on: Serratia marcescens ES-75; settings: ES75
[4] = tested on: Klebsiella pneumoniae EK-6; settings: EK6

SMILES | MIC [1] [µg/mL] | MIC [2] [µg/mL] | MIC (Escherichia coli NIHJ) [µg/mL] | MIC (Morganella morgani EP-14) [µg/mL] | MIC [3] [µg/mL] | MIC [4] [µg/mL]
C[N+](C)(C/C=C/C1=C(C(=O)[O-])N2C(=O)[C@@H](NC(=O)/C(=N\OCF)c3nsc(N)n3)[C@H]2SC1)[C@H](CO)C(N)=O [Example 10, 7β-[2-(5-Amino-1,2,4-Thiadiazol-3-yl)-(Z)-2-fluoromethoxyiminoacetamido]-3-[(E)-3-[((R)-1-Carbamoyl-2-Hydroxyethyl)Dimethylammonio]-1-propenyl]-3-Cephem-4-Carboxylate] | 0.8 (≈ 1.4 µM) | 0.2 (≈ 0.349 µM) | ≤ 0.025 | ≤ 0.025 | ≤ 0.025 | ≤ 0.025
CC[N+](C)(C/C=C/C1=C(C(=O)[O-])N2C(=O)[C@@H](NC(=O)/C(=N\OCF)c3nsc(N)n3)[C@H]2SC1)CC(N)=O (stereo partly drawn) [Example 14, 7β-[2-(5-Amino-1,2,4-Thiadiazol-3-yl)-(Z)-2-Fluoromethoxyiminoacetamido]-3-[(E)-3-(Carbamoylmethylethylmethylammonio)-1-Propenyl]-3-Cephem-4-Carboxylate] | 0.8 (≈ 1.44 µM) | 0.2 (≈ 0.359 µM) | ≤ 0.025 | ≤ 0.025 | 0.1 (≈ 0.18 µM) | ≤ 0.025
C[C@H](C(N)=O)[N+](C)(C)C/C=C/C1=C(C(=O)[O-])N2C(=O)[C@@H](NC(=O)/C(=N\OCF)c3nsc(N)n3)[C@H]2SC1 [Example 18, 7β-[2-(5-Amino-1,2,4-Thiadiazol-3-yl)-(Z)-2-Fluoromethyoxyiminoacetamido]-3-[(E)-3-[((R)-1Carbamoylethyl)dimethylammonio]-1-propenyl]-3-Cephem-4-Carboxylate] | 1.56 (≈ 2.8 µM) | 0.2 (≈ 0.359 µM) | ≤ 0.025 | ≤ 0.025 | 0.1 (≈ 0.18 µM) | ≤ 0.025
